{"source": "patent US20250051300A1", "about": "“GRAM-NEGATIVE SPECIFIC ANTIBIOTICS SPARING EFFECT ON GUT MICROBIOME” (THE BOARD OF TRUSTEES OF THE UNIVERSITY OF ILLINOIS, priority 2021, published 2025)", "key": {"Morganella morganii": {"system": "Morganella morganii", "assay": "MIC, gut commensal bacteria, micro-dilution broth", "conditions": "ATCC25839"}, "Bacteroides vulgatus": {"system": "Bacteroides vulgatus", "assay": "MIC, gut commensal bacteria, micro-dilution broth", "conditions": "Phocaeicola vulgatus"}, "[1]": {"system": "Faecalibacterium prausnitzii", "assay": "MIC, gut commensal bacteria, micro-dilution broth", "conditions": "Faecalibacterium prausnitzii, ATCC27768"}, "Bacteroides fragilis": {"system": "Bacteroides fragilis", "assay": "MIC, gut commensal bacteria, micro-dilution broth", "conditions": "Bacteroides fragilis, ATCC25285"}, "[2]": {"system": "Bacteroides cellulosilyticus", "assay": "MIC, gut commensal bacteria, micro-dilution broth", "conditions": "Bacteroides cellulosilyticus"}, "Bifidobacterium longum": {"system": "Bifidobacterium longum", "assay": "MIC, gut commensal bacteria, micro-dilution broth", "conditions": "Bifidobacterium longum, ATCCBAA999"}, "Streptococcus salivarius": {"system": "Streptococcus salivarius", "assay": "MIC, gut commensal bacteria, micro-dilution broth", "conditions": "Streptococcus salivarius"}, "[3]": {"system": "Stenotrophomonas maltophilia", "assay": "MIC, gut commensal bacteria, micro-dilution broth", "conditions": "Stenotrophomonas maltophilia, ATCC13637"}, "gut microbiome": {"system": "gut microbiome", "assay": "Impact on murine fecal microbiome (16S rRNA sequencing)", "conditions": "oral gavage twice a day for three days; feces at days 0, 7, 10, 31"}, "[4]": {"system": "Streptococcus parasanguinis", "assay": "MIC, gut commensal bacteria, micro-dilution broth", "conditions": "Streptococcus parasanguinis"}, "Proteus mirabilis": {"system": "Proteus mirabilis", "assay": "MIC, gut commensal bacteria, micro-dilution broth", "conditions": "Proteus mirabilis, ATCC35659"}, "Blautia producta": {"system": "Blautia producta", "assay": "MIC, gut commensal bacteria, micro-dilution broth", "conditions": "Blautia producta, ATCC27340"}, "Lactobacillus reuteri": {"system": "Lactobacillus reuteri", "assay": "MIC, gut commensal bacteria, micro-dilution broth", "conditions": "Limosilactobacillus reuteri, ATCC23272"}, "Enterococcus faecalis": {"system": "Enterococcus faecalis", "assay": "MIC, micro-dilution broth method (CLSI)", "type": "cell-based", "conditions": "Enterococcus faecalis KLE 2341, BHI-ych; read-out: MIC"}}}
{"smiles": "CC1(C)S[C@@H]2[C@H](NC(=O)[C@H](N)c3ccc(O)cc3)C(=O)N2[C@H]1C(=O)O", "note": "[Amoxicillin]", "values": [{"measurement": "MIC", "setting": "Morganella morganii", "result": 32, "unit": "µg/mL"}, {"measurement": "MIC", "setting": "Bacteroides vulgatus", "result": 2, "unit": "µg/mL"}, {"measurement": "MIC", "setting": "[1]", "result": 64, "unit": "µg/mL"}, {"measurement": "MIC", "setting": "Bacteroides fragilis", "result": 128, "unit": "µg/mL"}, {"measurement": "MIC", "setting": "[2]", "result": "> 128", "unit": "µg/mL"}, {"measurement": "MIC", "setting": "Bifidobacterium longum", "result": 1, "unit": "µg/mL"}, {"measurement": "MIC", "setting": "Streptococcus salivarius", "result": 0.125, "unit": "µg/mL"}, {"measurement": "MIC", "setting": "[3]", "result": "> 128", "unit": "µg/mL"}, {"measurement": "effect on gut microbiome taxonomic composition", "setting": "gut microbiome", "result": "increases in members of Bacteroidia"}, {"measurement": "MIC", "setting": "[4]", "result": 64, "unit": "µg/mL"}, {"measurement": "MIC", "setting": "Proteus mirabilis", "result": 0.008, "unit": "µg/mL"}, {"measurement": "MIC", "setting": "Blautia producta", "result": 1, "unit": "µg/mL"}, {"measurement": "MIC", "setting": "Lactobacillus reuteri", "result": 1, "unit": "µg/mL"}, {"measurement": "MIC", "setting": "Enterococcus faecalis", "result": 0.25, "unit": "µg/mL"}]}
{"smiles": "CCC[C@@H]1C[C@@H](C(=O)N[C@@H]([C@H]2O[C@H](SC)[C@H](O)[C@@H](O)[C@H]2O)[C@H](C)Cl)N(C)C1", "note": "[Clindamycin]", "values": [{"measurement": "MIC", "setting": "Morganella morganii", "result": "> 128", "unit": "µg/mL"}, {"measurement": "MIC", "setting": "Bacteroides vulgatus", "result": 16, "unit": "µg/mL"}, {"measurement": "MIC", "setting": "[1]", "result": 0.25, "unit": "µg/mL"}, {"measurement": "MIC", "setting": "Bacteroides fragilis", "result": 4, "unit": "µg/mL"}, {"measurement": "MIC", "setting": "[2]", "result": "> 128", "unit": "µg/mL"}, {"measurement": "MIC", "setting": "Bifidobacterium longum", "result": 0.5, "unit": "µg/mL"}, {"measurement": "MIC", "setting": "Streptococcus salivarius", "result": 2, "unit": "µg/mL"}, {"measurement": "MIC", "setting": "[3]", "result": 0.5, "unit": "µg/mL"}, {"measurement": "effect on gut microbiome taxonomic composition", "setting": "gut microbiome", "result": "large decreases in the members of Bacilli and Bacteroidia"}, {"measurement": "MIC", "setting": "[4]", "result": 0.06, "unit": "µg/mL"}, {"measurement": "MIC", "setting": "Proteus mirabilis", "result": 0.125, "unit": "µg/mL"}, {"measurement": "MIC", "setting": "Blautia producta", "result": 1, "unit": "µg/mL"}, {"measurement": "MIC", "setting": "Lactobacillus reuteri", "result": 0.25, "unit": "µg/mL"}, {"measurement": "MIC", "setting": "Enterococcus faecalis", "result": 1, "unit": "µg/mL"}]}
